Measured values from patent publication US11203015B2, “Microfluidic device” (TECHNISCHE UNIVERSITAT WIEN, priority 2016, dated 2021).

System: human umbilical vain endothelial cells (HUVECs)
Assay: microfluidic wound healing assay (membrane deflection, cell depletion)
Format: cell-based
Protocol: Lentivirally transduced GFP HUVEC (human umbilical vain endothelial cells) were obtained from Olaf pharmaceuticals (USA) and cultivated in gelatin coated 25 cm^2 cell culture flasks and maintained in EGM-2 (Lonza, CC3156) supplemented with EGM-2 SingleQuots (Lonza, CC4176). The coating was performed using 1% gelatin solution (9000-70-8, Sigma Aldrich) in DPBS and was incubated for 30 min at 37° C. For on chip experiments the medium was supplemented with 1% hepes buffer (J848, AMRESCO). For the coating experiment 500 mM NaOH was inserted to the microfluidic channels, incubated for 15 min at RT, following rinsing with PBS and a protein mixture comprising 10 μg/m fibronectin (Sigma Aldrich, F4759) and […] fibrinogen conjugated with Alexa Fluor 488 (Thermo Fisher, F13191) was incubated for 1 h at 37° C.
The microfluidic device of example 1 was placed on a heating plate equipped with a temperature controller. The temperature of the plate was adjusted to reach 37° C. on top of the microdevice. For the on-chip wound healing assays the microchip was first sterilized using 70% ethanol, rinsed using a 1 M NaOH solution for 15 min and washed with PBS prior coating using a 1% gelatin solution for 1 h. Cell suspension of desired concentration was prepared and inserted into microchannels using plastic syringe (1 ml). Cells were allowed to adhere for 1 h in the absence of fluid flow followed by a constant medium perfusion of 4 μl/min using syringe pump. As soon as the cells were grown confluent (typically 1 to 2 days) cells were mechanically damaged (“squeezed”) by the PDMS membrane, which bended under force towards the cell layer. Bending was induced by manual increase of pressure load to 150 kPa (differential pressure) followed by immediate release to 0 kPa using a pressure controller. To further remove residual cell debris from the substrate multiple membrane deflections (minimum of three times) were performed. During the mechanical damaging the medium perfusion was always kept on.
The fluorescence pictures were transformed to grey scale, the contrast increased and the leading edge of the wound selected using the Magic wand tool. This image was then processed using Image) by determining the cell-free area with the tool Analyze Particles.
Next the ability to create defined and reproducible cell depletion zones within a confluent cell monolayer was evaluated using the membrane deflection method. In a series of experiments endothelial cells were seeded and cultivated in a microfluidic channel for a minimum period of 6 hours prior cell removal. During the entire wound healing assay including the cell depletion procedure the applied flow rate of 3 μl/min was kept constant to ensure complete removal of cell debris following membrane compression. In addition to maintaining an intact coating, a further aspect that may also influence cell migration is associated with the release of biochemical factors from viable but injured cells at the edge of the wounding area. To investigate whether cells located in the adjacent vicinity of the cell-free area are injured by membrane compression, dead staining using ethidium homodimer-1 was conducted in subsequent experiments. Results indicated the presence of red fluorescently labelled DNA debris present in the cell-free area following 1 h after wound induction. More importantly, none of the leading edge cells appeared damaged by the membrane compression, since only DNA from lysed cells inside the wound remained on the substrate. […]

[1] = 10 μg/ml Mitomycin-C, one hour exposure, flow rate 3 μl/min, after 6 h

| Compound | wound closure observed after (10 μg/ml Mitomycin-C, one hour exposure) [h] | cell-free area, times larger compared to TNF-α treated cells [1] | cell-free area, times larger compared to control experiments [1] | cell density within the wounded area (10 μg/ml Mitomycin-C, after 24 h, compared to control) | remaining cell-free area, factor larger than control experiments (1 ng/ml TNF-α in medium immediately after wound induction and maintained, 6 h post wounding) |
| --- | --- | --- | --- | --- | --- |
| CO[C@@]12[C@H](COC(N)=O)C3=C(C(=O)C(C)=C(N)C3=O)N1C[C@@H]1N[C@@H]12 [Mitomycin-C] | 24 | 1.5 | 5 | visibly reduced |  |
| TNF-α |  |  |  |  | 3.3 |
